{"source": "PubChem BioAssay (NCI)", "assay_in_all_cases": "growth of human tumour cells (NCI), 48 h", "key": {"[1]": {"test_system": "786-0 renal"}, "[2]": {"test_system": "A498 renal"}, "[3]": {"test_system": "A549 NSCLC"}, "[4]": {"test_system": "BT-549 breast"}, "[5]": {"test_system": "CAKI-1 renal"}, "[6]": {"test_system": "CCRF-CEM leukemia"}, "[7]": {"test_system": "COLO 205 colon"}, "[8]": {"test_system": "DU-145 prostate"}, "[9]": {"test_system": "EKVX NSCLC"}, "[10]": {"test_system": "HCT-116 colon"}, "[11]": {"test_system": "HL-60(TB) leukemia"}, "[12]": {"test_system": "HOP-62 NSCLC"}, "[13]": {"test_system": "HS 578T breast"}, "[14]": {"test_system": "IGROV1 ovarian"}, "[15]": {"test_system": "K-562 leukemia"}, "[16]": {"test_system": "KM12 colon"}, "[17]": {"test_system": "LOX IMVI melanoma"}, "[18]": {"test_system": "M14 melanoma"}, "[19]": {"test_system": "MALME-3M melanoma"}, "[20]": {"test_system": "MCF7 breast"}, "[21]": {"test_system": "MDA-MB-231 breast"}, "[22]": {"test_system": "MDA-MB-435"}, "[23]": {"test_system": "MOLT-4 leukemia"}, "[24]": {"test_system": "NCI-H226 lung"}, "[25]": {"test_system": "NCI-H23 lung"}, "[26]": {"test_system": "NCI-H460 lung"}, "[27]": {"test_system": "NCI-H522 lung"}, "[28]": {"test_system": "NCI/ADR-RES ovarian"}, "[29]": {"test_system": "OVCAR-3 ovarian"}, "[30]": {"test_system": "OVCAR-4 ovarian"}, "[31]": {"test_system": "OVCAR-5 ovarian"}, "[32]": {"test_system": "OVCAR-8 ovarian"}, "[33]": {"test_system": "PC-3 prostate"}, "[34]": {"test_system": "RPMI-8226 leukemia"}, "[35]": {"test_system": "RXF 393 renal"}, "[36]": {"test_system": "SF-268 CNS"}, "[37]": {"test_system": "SF-295 CNS"}, "[38]": {"test_system": "SF-539 CNS"}, "[39]": {"test_system": "SK-MEL-2 melanoma"}, "[40]": {"test_system": "SK-MEL-28 melanoma"}, "[41]": {"test_system": "SK-MEL-5 melanoma"}, "[42]": {"test_system": "SK-OV-3 ovarian"}, "[43]": {"test_system": "SN12C renal"}, "[44]": {"test_system": "SNB-19 CNS"}, "[45]": {"test_system": "SR leukemia"}, "[46]": {"test_system": "SW-620 colon"}, "[47]": {"test_system": "T-47D breast"}, "[48]": {"test_system": "TK-10 renal"}, "[49]": {"test_system": "U251 CNS"}, "[50]": {"test_system": "UACC-257 melanoma"}, "[51]": {"test_system": "UACC-62 melanoma"}, "[52]": {"test_system": "UO-31 renal"}}, "note": "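Interpolation was linear, between the two tested concentrations surrounding the appropriate level; five concentrations were tested over 48 hours in 96-well plates. Here, GI50 denotes the concentration required for 50% inhibition of growth. Definition used: TGI = concentration required for complete inhibition of growth.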", "data": [{"smiles": "COCCN(CCOC)c1nc(-c2ccccc2)nc2ccccc12", "values": [{"measurement": "GI50", "setting": "[1]", "value": 25.6, "unit": "µM"}, {"measurement": "TGI", "setting": "[1]", "value": "> 100", "unit": "µM"}, {"measurement": "GI50", "setting": "[2]", "value": 30.1, "unit": "µM"}, {"measurement": "TGI", "setting": "[2]", "value": 89.7, "unit": "µM"}, {"measurement": "GI50", "setting": "[3]", "value": 30.1, "unit": "µM"}, {"measurement": "TGI", "setting": "[3]", "value": "> 100", "unit": "µM"}, {"measurement": "GI50", "setting": "[4]", "value": 22.5, "unit": "µM"}, {"measurement": "TGI", "setting": "[4]", "value": 47.7, "unit": "µM"}, {"measurement": "GI50", "setting": "[5]", "value": 23.2, "unit": "µM"}, {"measurement": "TGI", "setting": "[5]", "value": 73.2, "unit": "µM"}, {"measurement": "GI50", "setting": "[6]", "value": 4.23, "unit": "µM"}, {"measurement": "TGI", "setting": "[6]", "value": "> 100", "unit": "µM"}, {"measurement": "GI50", "setting": "[7]", "value": 28.2, "unit": "µM"}, {"measurement": "TGI", "setting": "[7]", "value": "> 100", "unit": "µM"}, {"measurement": "GI50", "setting": "[8]", "value": 36.9, "unit": "µM"}, {"measurement": "TGI", "setting": "[8]", "value": "> 100", "unit": "µM"}, {"measurement": "GI50", "setting": "[9]", "value": 38.8, "unit": "µM"}, {"measurement": "TGI", "setting": "[9]", "value": "> 100", "unit": "µM"}, {"measurement": "GI50", "setting": "[10]", "value": 24.5, "unit": "µM"}, {"measurement": "TGI", "setting": "[10]", "value": "> 100", "unit": "µM"}, {"measurement": "GI50", "setting": "[11]", "value": 30.3, "unit": "µM"}, {"measurement": "TGI", "setting": "[11]", "value": "> 100", "unit": "µM"}, {"measurement": "GI50", "setting": "[12]", "value": 22.4, "unit": "µM"}, {"measurement": "TGI", "setting": "[12]", "value": 64.3, "unit": "µM"}, {"measurement": "GI50", "setting": "[13]", "value": 38.8, "unit": "µM"}, {"measurement": "TGI", "setting": "[13]", "value": "> 100", "unit": "µM"}, {"measurement": "GI50", "setting": "[14]", "value": 25.2, "unit": "µM"}, {"measurement": "TGI", "setting": "[14]", "value": 93.6, "unit": "µM"}, {"measurement": "GI50", "setting": "[15]", "value": 36.1, "unit": "µM"}, {"measurement": "TGI", "setting": "[15]", "value": "> 100", "unit": "µM"}, {"measurement": "GI50", "setting": "[16]", "value": 18.6, "unit": "µM"}, {"measurement": "TGI", "setting": "[16]", "value": 47.2, "unit": "µM"}, {"measurement": "GI50", "setting": "[17]", "value": 34.7, "unit": "µM"}, {"measurement": "TGI", "setting": "[17]", "value": "> 100", "unit": "µM"}, {"measurement": "GI50", "setting": "[18]", "value": 13.9, "unit": "µM"}, {"measurement": "TGI", "setting": "[18]", "value": 56.6, "unit": "µM"}, {"measurement": "GI50", "setting": "[19]", "value": 20.2, "unit": "µM"}, {"measurement": "TGI", "setting": "[19]", "value": 39.9, "unit": "µM"}, {"measurement": "GI50", "setting": "[20]", "value": 20.6, "unit": "µM"}, {"measurement": "TGI", "setting": "[20]", "value": 55.7, "unit": "µM"}, {"measurement": "GI50", "setting": "[21]", "value": 59.4, "unit": "µM"}, {"measurement": "TGI", "setting": "[21]", "value": "> 100", "unit": "µM"}, {"measurement": "GI50", "setting": "[22]", "value": 21.9, "unit": "µM"}, {"measurement": "TGI", "setting": "[22]", "value": 55.8, "unit": "µM"}, {"measurement": "GI50", "setting": "[23]", "value": 28.3, "unit": "µM"}, {"measurement": "TGI", "setting": "[23]", "value": "> 100", "unit": "µM"}, {"measurement": "GI50", "setting": "[24]", "value": 23.6, "unit": "µM"}, {"measurement": "TGI", "setting": "[24]", "value": 54, "unit": "µM"}, {"measurement": "GI50", "setting": "[25]", "value": 26.6, "unit": "µM"}, {"measurement": "TGI", "setting": "[25]", "value": 54.7, "unit": "µM"}, {"measurement": "GI50", "setting": "[26]", "value": 20.8, "unit": "µM"}, {"measurement": "TGI", "setting": "[26]", "value": 79.2, "unit": "µM"}, {"measurement": "GI50", "setting": "[27]", "value": 21.6, "unit": "µM"}, {"measurement": "TGI", "setting": "[27]", "value": 52.7, "unit": "µM"}, {"measurement": "GI50", "setting": "[28]", "value": 21.3, "unit": "µM"}, {"measurement": "TGI", "setting": "[28]", "value": 61.2, "unit": "µM"}, {"measurement": "GI50", "setting": "[29]", "value": 31.3, "unit": "µM"}, {"measurement": "TGI", "setting": "[29]", "value": "> 100", "unit": "µM"}, {"measurement": "GI50", "setting": "[30]", "value": 44.8, "unit": "µM"}, {"measurement": "TGI", "setting": "[30]", "value": "> 100", "unit": "µM"}, {"measurement": "GI50", "setting": "[31]", "value": 21.9, "unit": "µM"}, {"measurement": "TGI", "setting": "[31]", "value": 46.3, "unit": "µM"}, {"measurement": "GI50", "setting": "[32]", "value": 33.7, "unit": "µM"}, {"measurement": "TGI", "setting": "[32]", "value": "> 100", "unit": "µM"}, {"measurement": "GI50", "setting": "[33]", "value": 15.1, "unit": "µM"}, {"measurement": "TGI", "setting": "[33]", "value": 43.7, "unit": "µM"}, {"measurement": "GI50", "setting": "[34]", "value": 7.03, "unit": "µM"}, {"measurement": "TGI", "setting": "[34]", "value": 36, "unit": "µM"}, {"measurement": "GI50", "setting": "[35]", "value": 34.6, "unit": "µM"}, {"measurement": "TGI", "setting": "[35]", "value": "> 100", "unit": "µM"}, {"measurement": "GI50", "setting": "[36]", "value": 19.7, "unit": "µM"}, {"measurement": "TGI", "setting": "[36]", "value": 62.4, "unit": "µM"}, {"measurement": "GI50", "setting": "[37]", "value": 30.9, "unit": "µM"}, {"measurement": "TGI", "setting": "[37]", "value": "> 100", "unit": "µM"}, {"measurement": "GI50", "setting": "[38]", "value": 24.3, "unit": "µM"}, {"measurement": "TGI", "setting": "[38]", "value": 52.9, "unit": "µM"}, {"measurement": "GI50", "setting": "[39]", "value": 19.2, "unit": "µM"}, {"measurement": "TGI", "setting": "[39]", "value": 44.6, "unit": "µM"}, {"measurement": "GI50", "setting": "[40]", "value": 29.2, "unit": "µM"}, {"measurement": "TGI", "setting": "[40]", "value": "> 100", "unit": "µM"}, {"measurement": "GI50", "setting": "[41]", "value": 15.8, "unit": "µM"}, {"measurement": "TGI", "setting": "[41]", "value": 32.9, "unit": "µM"}, {"measurement": "GI50", "setting": "[42]", "value": 31.9, "unit": "µM"}, {"measurement": "TGI", "setting": "[42]", "value": "> 100", "unit": "µM"}, {"measurement": "GI50", "setting": "[43]", "value": 29.1, "unit": "µM"}, {"measurement": "TGI", "setting": "[43]", "value": "> 100", "unit": "µM"}, {"measurement": "GI50", "setting": "[44]", "value": 40.9, "unit": "µM"}, {"measurement": "TGI", "setting": "[44]", "value": "> 100", "unit": "µM"}, {"measurement": "GI50", "setting": "[45]", "value": 34.4, "unit": "µM"}, {"measurement": "TGI", "setting": "[45]", "value": "> 100", "unit": "µM"}, {"measurement": "GI50", "setting": "[46]", "value": 33.9, "unit": "µM"}, {"measurement": "TGI", "setting": "[46]", "value": "> 100", "unit": "µM"}, {"measurement": "GI50", "setting": "[47]", "value": 26.9, "unit": "µM"}, {"measurement": "TGI", "setting": "[47]", "value": "> 100", "unit": "µM"}, {"measurement": "GI50", "setting": "[48]", "value": 30.7, "unit": "µM"}, {"measurement": "TGI", "setting": "[48]", "value": 78.4, "unit": "µM"}, {"measurement": "GI50", "setting": "[49]", "value": 70.1, "unit": "µM"}, {"measurement": "TGI", "setting": "[49]", "value": "> 100", "unit": "µM"}, {"measurement": "GI50", "setting": "[50]", "value": 17.7, "unit": "µM"}, {"measurement": "TGI", "setting": "[50]", "value": 36.6, "unit": "µM"}, {"measurement": "GI50", "setting": "[51]", "value": 18.2, "unit": "µM"}, {"measurement": "TGI", "setting": "[51]", "value": 34.9, "unit": "µM"}, {"measurement": "GI50", "setting": "[52]", "value": 28.1, "unit": "µM"}, {"measurement": "TGI", "setting": "[52]", "value": "> 100", "unit": "µM"}]}]}
